According to US10584115B2, “Substituted pyridine and pyrazine BMI-1 inhibitors” (PTC Therapeutics, Inc., priority 2013, dated 2020):

System: Bmi-1 protein
Assay: Sandwich ELISA Assay (Bmi-1 protein level in HT-1080 cells after compound treatment)
Type: cell-based
Conditions: Table 1, Bmi-1 sandwich ELISA, read-out: ELISA EC50 value for Bmi-1 protein
Procedure, shortened: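 HT-1080 cells exposed to compounds for 40–48 h at 37 °C (0.5% DMSO final), then lysed. Bmi-1 in lysates measured by sandwich ELISA (mouse monoclonal capture, rabbit anti-Bmi-1 detection, HRP anti-rabbit, TMB), read at OD450 with OD570 reference against a recombinant Bmi-1 standard curve (0–8000 pg/mL).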

EC50 [nM]	SMILES
10 to 100	Cc1nc2ccccc2n1-c1cc(F)cc(Nc2ccc(C(F)(F)F)cc2)n1 [Cpd 494, 4-fluoro-6-(2-methyl-1H-benzimidazol-1-yl)-N-[4-(trifluoromethyl)phenyl]pyridin-2-amine]
1 to 10	Cc1ccc(Nc2cccc(-n3c(C)nc4ccccc43)n2)cc1 [Cpd 581, 6-(2-methyl-1H-benzimidazol-1-yl)-N-(4-methylphenyl)pyridin-2-amine]
10 to 100	Cc1nc2ccc(F)cc2n1-c1cccc(Nc2ccc(OC(F)F)cc2)n1 [Cpd 584, N-[4-(difluoromethoxy)phenyl]-6-(6-fluoro-2-methyl-1H-benzimidazol-1-yl)pyridin-2-amine]
100 to 3000	Cc1nc2ccc(F)cc2n1-c1cccc(Nc2ccc(OC(F)(F)F)cc2)n1 [Cpd 585, 6-(6-fluoro-2-methyl-1H-benzimidazol-1-yl)-N-[4-(trifluoromethoxy)phenyl]pyridin-2-amine]
1 to 10	COc1ccc(Nc2cccc(-n3c(C)nc4ccc(F)cc43)n2)cc1 [Cpd 586, 6-(6-fluoro-2-methyl-1H-benzimidazol-1-yl)-N-(4-methoxyphenyl)pyridin-2-amine]
1 to 10	Cc1ccc(Nc2cccc(-n3c(C)nc4ccc(F)cc43)n2)cc1 [Cpd 587, 6-(6-fluoro-2-methyl-1H-benzimidazol-1-yl)-N-(4-methylphenyl)pyridin-2-amine]
100 to 3000	Cc1nc2ccccc2n1-c1cccc(Nc2ccc(Cl)cc2)n1 [Cpd 606, N-(4-chlorophenyl)-6-(2-methyl-1H-benzimidazol-1-yl)pyridin-2-amine]
10 to 100	Cc1nc2ccc(F)cc2n1-c1cccc(Nc2ccc(C(F)(F)F)cc2)n1 [Cpd 607, 6-(6-fluoro-2-methyl-1H-benzimidazol-1-yl)-N-[4-(trifluoromethyl)phenyl]pyridin-2-amine]
10 to 100	Cc1nc2ccc(F)cc2n1-c1cccc(Nc2ccc(Cl)cc2)n1 [Cpd 608, N-(4-chlorophenyl)-6-(6-fluoro-2-methyl-1H-benzimidazol-1-yl)pyridin-2-amine]
100 to 3000	Cc1nc2ccc(F)cc2n1-c1cccc(Nc2ccc(C#N)cc2)n1 [Cpd 609, 4-{[6-(6-fluoro-2-methyl-1H-benzimidazol-1-yl)pyridin-2-yl]amino}benzonitrile]
10 to 100	COC(=O)c1ccc(Nc2cccc(-n3c(C)nc4ccc(F)cc43)n2)cc1 [Cpd 610, methyl 4-{[6-(6-fluoro-2-methyl-1H-benzimidazol-1-yl)pyridin-2-yl]amino}benzoate]
10 to 100	Cc1ccc(Nc2cc(C#N)cc(-n3c(C)nc4ccccc43)n2)cc1 [Cpd 634, 2-(2-methyl-1H-benzimidazol-1-yl)-6-[(4-methylphenyl)amino]pyridine-4-carbonitrile]
10 to 100	COc1ccc2nc(C(F)(F)F)c(-c3cncc(Nc4ccccc4)n3)n2c1 [Cpd 678, 6-[6-methoxy-2-(trifluoromethyl)imidazo[1,2-a]pyridin-3-yl]-N-phenylpyrazin-2-amine]
10 to 100	COc1ccc2nc(C(F)(F)F)c(-c3cncc(Nc4ccc(Cl)cc4)n3)n2c1 [Cpd 679, N-(4-chlorophenyl)-6-[6-methoxy-2-(trifluoromethyl)imidazo[1,2-a]pyridin-3-yl]pyrazin-2-amine]
10 to 100	COc1ccc2nc(C(F)(F)F)c(-c3cncc(Nc4ccc(Br)cc4)n3)n2c1 [Cpd 680, N-(4-bromophenyl)-6-[6-methoxy-2-(trifluoromethyl)imidazo[1,2-a]pyridin-3-yl]pyrazin-2-amine]
100 to 3000	COc1ccc2nc(C(F)(F)F)c(-c3cncc(Nc4ccc(F)cc4)n3)n2c1 [Cpd 681, N-(4-fluorophenyl)-6-[6-methoxy-2-(trifluoromethyl)imidazo[1,2-a]pyridin-3-yl]pyrazin-2-amine]
100 to 3000	COc1ccc2nc(C(F)(F)F)c(-c3cncc(Nc4ccc(C)cc4)n3)n2c1 [Cpd 682, 6-[6-methoxy-2-(trifluoromethyl)imidazo[1,2-a]pyridin-3-yl]-N-(4-methylphenyl)pyrazin-2-amine]
10 to 100	COc1ccc(Nc2cncc(-n3cnc4ccccc43)n2)cc1 [compound 1, 6-(1H-benzimidazol-1-yl)-N-(4-methoxyphenyl)pyrazin-2-amine]
10 to 100	Ic1ccc(Nc2cncc(-n3cnc4ccccc43)n2)cc1 [compound 2, 6-(1H-benzimidazol-1-yl)-N-(4-iodophenyl)pyrazin-2-amine]
< 1	COc1ccc(Nc2cncc(-n3c(C)nc4ccccc43)n2)cc1F [compound 12, N-(3-fluoro-4-methoxyphenyl)-6-(2-methyl-1H-benzimidazol-1-yl)pyrazin-2-amine]

EC50 [nM]	SMILES
10 to 100	Cc1nc2ccccc2n1-c1cncc(Nc2ccc(C(F)(F)F)cc2)n1 [compound 13, 6-(2-methyl-1H-benzimidazol-1-yl)-N-[4-(trifluoromethyl)phenyl]pyrazin-2-amine]
100 to 3000	FC(F)(F)c1ccc(Nc2cncc(-n3c(C(F)(F)F)nc4ccccc43)n2)cc1 [compound 14, 6-[2-(trifluoromethyl)-1H-benzimidazol-1-yl]-N-[4-(trifluoromethyl)phenyl]pyrazin-2-amine]
10 to 100	FC(F)(F)c1ccc(Nc2cncc(-c3cccc4cc(C(F)(F)F)nn34)n2)cc1 [compound 15, N-[4-(trifluoromethyl)phenyl]-6-[2-(trifluoromethyl)pyrazolo[1,5-a]pyridin-7-yl]pyrazin-2-amine]
100 to 3000	Cc1nc2ccccc2n1-c1cncc(Nc2ccc(OC(F)(F)F)cc2)n1 [compound 19, 6-(2-methyl-1H-benzimidazol-1-yl)-N-[4-(trifluoromethoxy)phenyl]pyrazin-2-amine]
10 to 100	Cc1nc2ccccc2n1-c1cncc(Nc2ccc(Cl)cc2)n1 [compound 20, N-(4-chlorophenyl)-6-(2-methyl-1H-benzimidazol-1-yl)pyrazin-2-amine]
1 to 10	Cc1nc2ccccc2n1-c1cncc(Nc2ccc(OC(F)F)cc2)n1 [compound 21, N-[4-(difluoromethoxy)phenyl]-6-(2-methyl-1H-benzimidazol-1-yl)pyrazin-2-amine]
1 to 10	COc1ccc(Nc2cncc(-n3c(C)nc4ccccc43)n2)cc1Cl [compound 28, N-(3-chloro-4-methoxyphenyl)-6-(2-methyl-1H-benzimidazol-1-yl)pyrazin-2-amine]
100 to 3000	COc1ccc(Nc2nc(-c3c(C(F)(F)F)nc4ccccn34)ccc2C#N)cc1 [compound 41, 2-[(4-methoxyphenyl)amino]-6-[2-(trifluoromethyl)imidazo[1,2-a]pyridin-3-yl]pyridine-3-carbonitrile]
1 to 10	COc1ccc(Nc2cncc(-n3c(C(F)(F)F)nc4ccccc43)n2)cc1 [compound 43, N-(4-methoxyphenyl)-6-[2-(trifluoromethyl)-1H-benzimidazol-1-yl]pyrazin-2-amine]
10 to 100	FC(F)Oc1ccc(Nc2cncc(-n3c(C(F)(F)F)nc4ccccc43)n2)cc1 [compound 44, N-[4-(difluoromethoxy)phenyl]-6-[2-(trifluoromethyl)-1H-benzimidazol-1-yl]pyrazin-2-amine]
1 to 10	CCc1nc2ccccc2n1-c1cncc(Nc2ccc(C(F)(F)F)cc2)n1 [compound 51, 6-(2-ethyl-1H-benzimidazol-1-yl)-N-[4-(trifluoromethyl)phenyl]pyrazin-2-amine]
10 to 100	CC(C)c1nc2ccccc2n1-c1cncc(Nc2ccc(C(F)(F)F)cc2)n1 [compound 52, 6-[2-(propan-2-yl)-1H-benzimidazol-1-yl]-N-[4-(trifluoromethyl)phenyl]pyrazin-2-amine]
10 to 100	CCCc1nc2ccccc2n1-c1cncc(Nc2ccc(C(F)(F)F)cc2)n1 [compound 53, 6-(2-propyl-1H-benzimidazol-1-yl)-N-[4-(trifluoromethyl)phenyl]pyrazin-2-amine]
10 to 100	CSc1nc2ccccc2n1-c1cncc(Nc2ccc(C(F)(F)F)cc2)n1 [compound 54, 6-[2-(methylsulfanyl)-1H-benzimidazol-1-yl]-N-[4-(trifluoromethyl)phenyl]pyrazin-2-amine]
1 to 10	CNc1nc2ccccc2n1-c1cncc(Nc2ccc(C(F)(F)F)cc2)n1 [compound 61, N-methyl-1-(6-{[4-(trifluoromethyl)phenyl]amino}pyrazin-2-yl)-1H-benzimidazol-2-amine]
10 to 100	FC(F)(F)Oc1ccc(Nc2cncc(-c3c(C(F)(F)F)nn4ccccc34)n2)cc1 [compound 63, N-[4-(trifluoromethoxy)phenyl]-6-[2-(trifluoromethyl)pyrazolo[1,5-a]pyridin-3-yl]pyrazin-2-amine]
100 to 3000	COCc1nc2ccccc2n1-c1cncc(Nc2ccc(C(F)(F)F)cc2)n1 [compound 65, 6-[2-(methoxymethyl)-1H-benzimidazol-1-yl]-N-[4-(trifluoromethyl)phenyl]pyrazin-2-amine]
100 to 3000	OCc1nc2ccccc2n1-c1cncc(Nc2ccc(C(F)(F)F)cc2)n1 [compound 66, [1-(6-{[4-(trifluoromethyl)phenyl]amino}pyrazin-2-yl)-1H-benzimidazol-2-yl]methanol]
1 to 10	CSc1ccc(Nc2cncc(-c3c(C(F)(F)F)nc4ccccn34)n2)cc1 [compound 69, N-[4-(methylsulfanyl)phenyl]-6-[2-(trifluoromethyl)imidazo[1,2-a]pyridin-3-yl]pyrazin-2-amine]

Same assay, conditions: read-out: ELISA EC50 value for Bmi-1 protein, Table 1, Bmi-1 sandwich ELISA

SMILES	EC50 [nM]
COc1ccc(Nc2nc(-n3c(C)nc4ccccc43)ccc2N)cc1 [Cpd 518, N^2-(4-methoxyphenyl)-6-(2-methyl-1H-benzimidazol-1-yl)pyridine-2,3-diamine]	10 to 100
FC(F)(F)c1ccc(Nc2cncc(-c3c(C(F)(F)F)nn4ccccc34)n2)cc1 [compound 62, N-[4-(trifluoromethyl)phenyl]-6-[2-(trifluoromethyl)pyrazolo[1,5-a]pyridin-3-yl]pyrazin-2-amine]	10 to 100
